Where two headings read alike, the source gives them in different places.
Key:
RORγ = RORγ (Homo sapiens, UniProt P51449); assay: RORγ Gal4 Reporter Gene Assay; type: cell-based; details: for IC50: 293T cells
Method in brief: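 Cells at 5×10^5/well were transfected with RORγ fragments fused to the GAL4 DNA-binding domain (CMV promoter), a 5×GAL4-site firefly luciferase reporter and CMV-Renilla luciferase for normalization. About 4 h later serum-free MEM and compound were added (vehicle ≤0.1%). Cultures at 37 °C, 5% CO2; at least triplicates.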

[1] = biological target: RORγ ligand binding domain (LBD) (Homo sapiens (Human), UniProt P51449); assay: TR-FRET Activity Assay (ligand sensing assay, LANCE); details: for pIC50 (FRET): TR-FRET, interaction of RORγ-LBD with coactivator peptide
Sequence of RORγ ligand binding domain (LBD) (P51449 269-508): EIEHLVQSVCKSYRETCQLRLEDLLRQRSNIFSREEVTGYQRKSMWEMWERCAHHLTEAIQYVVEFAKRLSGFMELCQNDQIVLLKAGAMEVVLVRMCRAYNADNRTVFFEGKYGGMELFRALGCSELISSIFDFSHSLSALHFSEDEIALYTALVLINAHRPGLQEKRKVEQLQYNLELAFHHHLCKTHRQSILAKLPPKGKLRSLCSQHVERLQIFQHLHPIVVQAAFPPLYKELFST
Text: The ligand-binding domain (LBD) of RORγ was expressed as fusion protein with GST in BL-21 (BL3) cells using the vector pDEST15. Cells were lysed by lysozyme-treatment and sonication, and the fusion proteins purified over glutathione sepharose (Pharmacia) according to the manufacturers instructions. For screening of compounds for their influence on the RORγ-peptide interaction, the LANCE technology (Perkin Elmer) was applied. This method relies on the binding dependent energy transfer from a donor to an acceptor fluorophor attached to the binding partner of interest. For ease of handling and reduction of background from compound fluorescence LANCE technology makes use of generic fluorophore labels and time resolved detection assays were done in a final volume of 25 μL in a 384 well plate, in a Tris-based buffer system (20 mM Tris-HCl pH 6.8; 60 mM KCl, 1 mM DTT; 5 mM MgCl2; 35 ng/μL BSA), containing 20-60 ng/well recombinantly expressed RORγ-LBD fused to GST, 200-600 nM N-terminally biotinylated peptide, 200 ng/well Streptavidin-xlAPC conjugate (Prozyme) and 6-10 ng/well Eu W1024-antiGST (Perkin Elmer). DMSO content of the samples was kept at 1%.
After generation of the Tris-based buffer system, the potentially RORγ modulating ligands were diluted. […] The LANCE signal was detected by a Perkin Elmer EnVision™ Multilabel Counter. […] Ligands that promote the complex formation induce a concentration-dependent increase in time-resolved fluorescent signal.
Y is the response. Y starts at Bottom and goes to Top with a sigmoidal shape.
This is identical to the “four parameter logistic equation”. The IC50 values are calculated using this equation.

Sequence of RORγ (P51449 whole entry, looked up, the tested form may be a part): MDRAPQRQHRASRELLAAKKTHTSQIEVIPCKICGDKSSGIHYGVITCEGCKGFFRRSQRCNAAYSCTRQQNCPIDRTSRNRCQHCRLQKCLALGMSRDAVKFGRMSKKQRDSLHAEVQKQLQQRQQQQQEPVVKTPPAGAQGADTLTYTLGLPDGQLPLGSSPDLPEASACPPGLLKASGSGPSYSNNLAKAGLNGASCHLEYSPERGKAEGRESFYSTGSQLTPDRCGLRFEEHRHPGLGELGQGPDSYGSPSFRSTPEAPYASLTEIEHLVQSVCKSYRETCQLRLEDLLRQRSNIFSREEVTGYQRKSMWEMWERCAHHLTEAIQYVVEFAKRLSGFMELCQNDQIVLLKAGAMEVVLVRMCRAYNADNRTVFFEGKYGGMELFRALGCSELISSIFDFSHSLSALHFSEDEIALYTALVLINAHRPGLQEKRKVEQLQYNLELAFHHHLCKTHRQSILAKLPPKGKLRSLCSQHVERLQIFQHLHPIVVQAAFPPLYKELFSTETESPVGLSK

SMILES	pIC50 (FF) (RORγ)	pIC50 (REN) (RORγ)	pIC50 (FRET) [1]	IC50 (RORγ; firefly (FF) luciferase, read-out: pIC50 (FF) (converted)) [µM]	IC50 (RORγ; renilla normalised (RENnorm) luciferase, read-out: pIC50 (REN) (converted)) [µM]	IC50 [1] [µM]
CC(C)(C)NS(=O)(=O)c1ccc(-c2sc(C(=O)NC3CCS(=O)(=O)CC3)nc2Cc2ccccc2)c2ccccc12 [Example 300, 4-Benzyl-5-(4-(N-(tert-butyl)sulfamoyl)naphthalen-1-yl)-N-(1,1-dioxidotetrahydro-2H-thiopyran-4-yl)thiazole-2-carboxamide]	7.1/8.2/8.4	7.1/8.2/8.4	7.1/8.2/8.4	–	–	–
CC(C)(C)NS(=O)(=O)c1ccc(-c2sc(C(=O)NN3CCS(=O)(=O)CC3)nc2CC2CCCCC2)c(Cl)c1Cl [6/21]	6.8/8.7/8.7	6.8/8.7/8.7	6.8/8.7/8.7	–	–	–
CC(C)(C)c1cc(-c2sc(C(=O)NCC3(C(N)=O)CCOCC3)nc2CC2CCCCC2)cc(C2(C)CC2)c1 [6/2]	7.0/7.5/7.7	7.0/7.5/7.7	7.0/7.5/7.7	–	–	–
CC(C)(O)CNC(=O)c1nc(CC2CCCCC2)c(-c2ccc(S(=O)(=O)NC(C)(C)C)c(C(F)F)c2F)s1 [6/18]	7.0/8.5/8.7	7.0/8.5/8.7	7.0/8.5/8.7	–	–	–
CC(C)(C)c1cc(-c2nc(C(N)=O)sc2CC2CCCCC2)cc(C(C)(C)C)c1 [Example 1, 5-(Cyclohexylmethyl)-4-(3,5-di-tert-butylphenyl)thiazole-2-carboxamide]	6.5/5.8/5.8	6.5/5.8/5.8	6.5/5.8/5.8	–	–	–
CC(C)(C)c1cc(-c2sc(S(N)(=O)=O)nc2CC2CCCCC2)cc(C2(C)CC2)c1 [Example 13, 5-(3-(tert-Butyl)-5-(1-methylcyclopropyl)phenyl)-4-(cyclohexylmethyl)thiazole-2-sulfonamide]	7.0/6.5/6.7	7.0/6.5/6.7	7.0/6.5/6.7	–	–	–
CC(C)(C)NS(=O)(=O)c1ccc(-c2oc(C(=O)NC3CCOCC3)nc2CC2CCCCC2)cc1C(C)(C)C [Example 100/1]	5.9/6.3/6.3	5.9/6.3/6.3	5.9/6.3/6.3	–	–	–
CC(C)(CNC(=O)c1nc(CC2CCCCC2)c(-c2cc(C(C)(C)C)cc(C3(C)CC3)c2)o1)C(=O)O [100/19]	5.9/6.6/6.6	5.9/6.6/6.6	5.9/6.6/6.6	–	–	–
CC(C)(C)NS(=O)(=O)c1ccc(-c2sc(C(=O)NN3CCOCC3)nc2CC2CCCCC2)c(Cl)c1Cl [6/20]	6.9/8.7/8.7	6.9/8.7/8.7	6.9	–	–	–
CC(C)(C)NS(=O)(=O)c1ccc(-c2sc(C(=O)N[C@H]3C[C@H](C(=O)O)C3)nc2CC2CCCCC2)c(OC(F)F)c1Cl [21/3]	–	–	–	0.01	0.00501	0.398
CC(C)(C)NS(=O)(=O)c1ccc(-c2oc(C(=O)N[C@H]3C[C@H](C(=O)O)C3)nc2CC2CCCCC2)cc1C(C)(C)C [100/2]	5.5/6.4/6.3	5.5/6.4/6.3	5.5/6.4/6.3	–	–	–
CC(C)(O)CNC(=O)c1nc(CC2CCCCC2)c(-c2ccc(S(=O)(=O)NC(C)(C)C)c3c(F)cccc23)s1 [19/8]	7.0/7.7/7.8	7.0/7.7/7.8	7.0/7.7/7.8	–	–	–
CC(C)(C)NS(=O)(=O)c1ccc(-c2sc(C(=O)N[C@H]3C[C@H](C(=O)O)C3)nc2CC2CCCCC2)c(C(F)F)c1Cl [7/16]	6.5/8.5/8.5	6.5/8.5/8.5	6.5/8.5/8.5	–	–	–
CC(C)(O)CNC(=O)c1nc(CC2CCCCC2)c(-c2ccc(S(=O)(=O)NC(C)(C)C)c(Cl)c2OC(F)F)s1 [21/4]	6.9/8.2/8.4	6.9/8.2/8.4	6.9/8.2/8.4	–	–	–
CC(C)(C)NS(=O)(=O)c1ccc(-c2sc(C(=O)NC3COC3)nc2CC2CCCCC2)c(Cl)c1Cl [6/34]	7.2/8.5/8.5	7.2/8.5/8.5	7.2/8.5/8.5	–	–	–
CC(C)(C)NS(=O)(=O)c1ccc(-c2oc(C(=O)N[C@H]3C[C@H](C(=O)O)C3)nc2CC2CCCCC2)c(Cl)c1Cl [100/17]	6.1/7.1/7.0	6.1/7.1/7.0	6.1/7.1/7.0	–	–	–
CC(C)(C)NS(=O)(=O)c1ccc(-c2sc(C(=O)N[C@H]3C[C@H](C(=O)O)C3)nc2CC2CCCCC2)cc1C(C)(C)C [7/2]	6.2/7.5/7.6	6.2/7.5/7.6	6.2/7.5/7.6	–	–	–
CC(C)(C)NS(=O)(=O)c1ccc(-c2oc(C(=O)NC34CCC(C(=O)NS(C)(=O)=O)(CC3)CC4)nc2CC2CCCCC2)c2ccccc12 [Example 102, 5-(4-(N-(tert-Butyl)sulfamoyl)naphthalen-1-yl)-4-(cyclohexylmethyl)-N-(4-((methylsulfonyl)carbamoyl)bicyclo[2.2.2]octan-1-yl)oxazole-2-carboxamide]	6.0/7.3/7.4	6.0/7.3/7.4	6.0/7.3/7.4	–	–	–
Cc1c(C(=O)NC(C)(C)C)cc(-c2sc(C(=O)N[C@H]3C[C@H](C(=O)O)C3)nc2CC2CCCCC2)cc1C1(C)CC1 [19/7]	5.8/6.8/6.8	5.8/6.8/6.8	5.8/6.8/6.8	–	–	–

SMILES	pIC50 (FF) (RORγ)	pIC50 (REN) (RORγ)	pIC50 (FRET) [1]	IC50 (RORγ; firefly (FF) luciferase, read-out: pIC50 (FF) (converted)) [µM]	IC50 (RORγ; renilla normalised (RENnorm) luciferase, read-out: pIC50 (REN) (converted)) [µM]	IC50 [1] [µM]
CC(C)(C)NS(=O)(=O)c1ccc(-c2sc(C(=O)NC3CCS(=O)(=O)CC3)nc2-c2ccccc2)c2ccccc12 [Example 300/1]	7.2/7.8/7.9	7.2/7.8/7.9	7.2/7.8/7.9	–	–	–
CC(C)(C)NS(=O)(=O)c1ccc(-c2sc(C(=O)NCC3(C(N)=O)CCOCC3)nc2CC2CCCCC2)cc1C(C)(C)C [Example 6/1]	6.5/7.5/7.7	6.5/7.5/7.7	6.5/7.5/7.7	–	–	–
CC(C)(O)CNC(=O)c1nc(CC2CCCCC2)c(-c2ccc(S(=O)(=O)NC(C)(C)C)c(Cl)c2Cl)o1 [100/15]	6.4/7.4/7.5	6.4/7.4/7.5	6.4/7.4/7.5	–	–	–
CC(C)(O)CNC(=O)c1nc(CC2CCCCC2)c(-c2ccc(S(=O)(=O)NC(C)(C)C)c3ccccc23)o1 [100/7]	6.6/7.7/7.9	6.6/7.7/7.9	6.6/7.7/7.9	–	–	–
CC(C)(CCNC(=O)c1nc(CC2CCCCC2)c(-c2cc(C(C)(C)C)cc(C3(C)CC3)c2)s1)C(=O)O [Example 7, 4-(5-(3-(tert-Butyl)-5-(1-methylcyclopropyl)phenyl)-4-(cyclohexylmehthyl)thiazole-2-carboxamido)-2,2-dimethylbutanoic acid]	6.3/7.0/7.0	6.3/7.0/7.0	6.3/7.0/7.0	–	–	–
CNS(=O)(=O)c1ccc(-c2sc(C(=O)N3CC4(CCS(=O)(=O)CC4)C3)nc2CC2CCCCC2)c2ccccc12 [14/5]	6.3/6.6/6.6	6.3/6.6/6.6	6.3/6.6/6.6	–	–	–
CC(C)(C)NS(=O)(=O)c1ccc(-c2sc(C(=O)NC3CCS(=O)(=O)CC3)nc2CC2CCCCC2)cc1C(C)(C)O [6/26]	6.6/7.7/7.8	6.6/7.7/7.8	6.6/7.7/7.8	–	–	–
CC(C)(C)NS(=O)(=O)c1ccc(-c2sc(C(=O)N[C@H]3C[C@H](C(=O)O)C3)nc2CC2CCCCC2)cc1C(F)(F)F [9/2]	6.9/8.0/8.0	6.9/8.0/8.0	6.9/8.0/8.0	–	–	–
COC(c1nc(C(=O)N[C@H]2C[C@H](C(=O)O)C2)sc1-c1ccc(S(=O)(=O)NC(C)(C)C)c(Cl)c1Cl)C1CCCCC1 (stereo partly drawn) [19/4]	6.0/7.3/7.2	6.0/7.3/7.2	6.0/7.3/7.2	–	–	–
CC(C)(C)NS(=O)(=O)c1ccc(-c2sc(C(=O)N[C@H]3C[C@H](C(=O)O)C3)nc2CC2CCCCC2)c(F)c1OC(F)(F)F [19/10]	6.7/8.4/8.5	6.7/8.4/8.5	6.7/8.4/8.5	–	–	–
CC(C)(C)c1cc(-c2sc(C(=O)N[C@H]3C[C@H](C(=O)O)C3)nc2CC2CCCCC2)cc(C(C)(F)F)c1 [7/18]	6.4/7.4/7.4	6.4/7.4/7.4	6.4/7.4/7.4	–	–	–
CC(C)(C)NS(=O)(=O)c1ccc(-c2oc(C(=O)NC3CCS(=O)(=O)CC3)nc2CC2CCCCC2)c(Cl)c1Cl [100/16]	6.6/8.4/8.2	6.6/8.4/8.2	6.6/8.4/8.2	–	–	–
CC(C)(CO)NS(=O)(=O)c1ccc(-c2sc(C(=O)N3CC4(CCS(=O)(=O)CC4)C3)nc2CC2CCCCC2)c2ccccc12 [Example 14/1]	6.2/7.1/7.1	6.2/7.1/7.1	6.2/7.1/7.1	–	–	–
CC(C)(C)NS(=O)(=O)c1ccc(-c2sc(C(=O)N3CC(C(C)(C)C(=O)O)C3)nc2CC2CCCCC2)c(Cl)c1Cl [6/37]	6.1/6.9/6.9	6.1/6.9/6.9	6.1	–	–	–
CC(C)(O)CNC(=O)c1nc(CC2CCCCC2)c(-c2ccc(S(=O)(=O)NC(C)(C)C)c(C(C)(C)O)c2)s1 [6/23]	6.6/7.5/7.6	6.6/7.5/7.6	6.6/7.5/7.6	–	–	–
CC(C)(C)c1cc(-c2oc(C(N)=O)nc2CC2CCCCC2)cc(C(C)(C)C)c1 [Example 100, 4-(Cyclohexylmethyl)-5-(3,5-di-tert-butylphenyl)oxazole-2-carboxamide]	6.6/5.8/5.8	6.6/5.8/5.8	6.6/5.8/5.8	–	–	–
CC(C)(C)NS(=O)(=O)c1ccc(-c2sc(C(=O)NCCC(C)(C)C(=O)O)nc2CC2CCCCC2)c(Cl)c1Cl [6/39]	6.4/8.2/8.2	6.4/8.2/8.2	6.4/8.2/8.2	–	–	–
CC(C)(C)NS(=O)(=O)c1ccc(-c2sc(C(=O)N3CC4(CSC4)C3)nc2CC2CCCCC2)c(Cl)c1Cl [6/32]	6.9/8.0/8.2	6.9/8.0/8.2	6.9/8.0/8.2	–	–	–
